Laboratory results: PMC2112011 (The Journal of Cell Biology, 1982)

Tested on: C3H cells
Assay: Rodlet formation
Type: cell-based, mouse
Settings: 10-20 μM, 1 h

CC1=C[C@@H]2/C=C(\C)CC[C@H](O)[C@H](O)/C=C/C(=O)[C@]23C(=O)N[C@@H](CC(C)C)[C@@H]3[C@@H]1C [AsD, Aspochalasin D]
Number of rodlets within a single cell: 1-127
